Assay [1] addresses T1, androgen receptor (Rattus norvegicus, UniProt P15207).
T1 sequence (P15207 1-902): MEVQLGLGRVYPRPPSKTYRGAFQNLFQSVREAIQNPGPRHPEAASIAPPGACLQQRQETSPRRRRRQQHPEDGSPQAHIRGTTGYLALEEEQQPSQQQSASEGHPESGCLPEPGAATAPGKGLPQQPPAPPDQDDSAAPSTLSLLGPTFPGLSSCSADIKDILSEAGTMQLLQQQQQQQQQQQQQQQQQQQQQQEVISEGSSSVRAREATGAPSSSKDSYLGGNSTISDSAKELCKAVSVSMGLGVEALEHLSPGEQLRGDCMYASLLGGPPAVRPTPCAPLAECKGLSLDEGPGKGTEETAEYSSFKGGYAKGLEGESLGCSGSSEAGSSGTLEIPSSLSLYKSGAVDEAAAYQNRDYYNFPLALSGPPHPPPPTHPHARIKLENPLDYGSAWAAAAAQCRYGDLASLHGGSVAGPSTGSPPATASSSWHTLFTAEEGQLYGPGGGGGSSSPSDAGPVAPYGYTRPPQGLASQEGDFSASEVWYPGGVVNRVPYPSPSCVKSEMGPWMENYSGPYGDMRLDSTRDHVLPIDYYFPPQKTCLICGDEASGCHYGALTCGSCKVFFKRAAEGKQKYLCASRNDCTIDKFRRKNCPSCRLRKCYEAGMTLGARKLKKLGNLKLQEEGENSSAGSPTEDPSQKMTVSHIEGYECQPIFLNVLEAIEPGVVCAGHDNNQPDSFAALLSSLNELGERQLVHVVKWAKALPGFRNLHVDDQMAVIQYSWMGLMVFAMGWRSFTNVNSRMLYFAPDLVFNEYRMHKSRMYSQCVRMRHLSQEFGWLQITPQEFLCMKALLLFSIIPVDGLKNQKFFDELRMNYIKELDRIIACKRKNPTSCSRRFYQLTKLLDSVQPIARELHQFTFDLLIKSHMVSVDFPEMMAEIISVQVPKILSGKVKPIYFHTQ
Briefly: L929 androgen receptor functional assay, adenovirus transduction. Type of assay: cell-based. The settings on record: for % Activition @ 3 μM: agonist testing (no R1881), luciferase. The arrangement: expressed in transfected cells. The procedure:
L929 cells were plated in 96-well plates at 20,000 cells per well, in DMEM/F12 (GIBCO) containing 10% (v/v) charcoal-treated fetal bovine serum (Hyclone) and lacking phenol red. The plates were then incubated overnight at 37° C. in 5% (v/v) humidified CO2.
Test compound dilutions were prepared in 100% (v/v) DMSO, if necessary. Each dilution was made to 1250× the final desired assay concentration. First, 2 mL of DMEM/F12 lacking phenol red was pipetted into the wells of a 2-mL 96-well assay block. Next, 4 μL of the 1250× test compound dilutions were pipetted into each well of the assay block. The mixtures within the well were then carefully mixed by pipette.
In a 15 mL or 50 mL sterile centrifuge tube, a 2.5 nM (2.5×) dilution of R1881 (methyl-trienolone) in DMEM/F12 lacking phenol red was prepared. In a second 15 mL or 50 mL centrifuge tube a solution containing an equal volume of DMEM to the first and an equal volume of 100% (v/v) DMSO to the volume of R1881 used in the first tube was prepared.
In a 15 mL or 50 mL sterile centrifuge tube, a dilution in DMEM/F12 of the adenovirus AdEasy+rAR at an moi of 1:500 per well was prepared. The medium was removed from the 96-well plates by inversion and dried, inverted, very briefly. As soon as possible after medium removal, 40 μL of the diluted unlabeled test compound was added to each well, in duplicate. To each well designated for antagonist testing was added 40 μL of the 2.5 nM R1881 dilution to the wells for antagonist testing. To each well designated for agonist testing was added 40 μL of the DMSO dilution. Then 20 μL of the diluted adenovirus were added to all wells. The plates were incubated for 48 hours at 37° C. in 5% (v/v) humidified CO2.
To each well was added 100 μL of Steady-Glo luciferase assay substrate (Promega) and the plates were placed on a rotary shaker for 1 min. The plates were then incubated at room temperature in the dark for one hour. The contents of each well were then transferred to a white microtiter plate (Packard) and read on a Luminoskan Ascent (Thermo Lab Systems).
L929 AR percent activity was determined by testing dilutions of the test compound using a concentration of 3000 nM unless otherwise noted. L929 percent inhibition was determined by testing dilutions of the test compound using a concentration of 3000 nM. EC50s and IC50s were determined by testing serial dilutions of the test compound (usually duplicate ten half-log dilutions starting at 10 μM). Luciferase activity per well were measured and EC50s and IC50s determined by linear regression.
Representative compounds of the present invention were tested for functional activity at the androgen receptor according to the procedure described above with results as listed in Table 4.

For assay [2], the target named is T1, androgen receptor. Briefly: Androgen receptor binding using rat ventral prostate cytosol. Further details: Male Sprague Dawley or Wistar rats (Charles River, 200-300 g) were used for each preparation; from tissue; host or cells: ventral prostate cytosol of castrated male Sprague Dawley or Wistar rats.
[3] abbreviates: 3 μM, L929 cells, antagonist testing with R1881, luciferase.

For the molecule `COC(=O)C1(C)CN(c2ccccc2)C(=O)N1` (racemic) [Compound 4b], in assay [1] (3 μM, L929 cells), the “% Activition @ 3 μM” value amounted to 0%. Moreover, the “% Inhibition @ 3 μM” value in assay [1] (setting [3]) is on record as 34%; in assay [2], −71%.
In the same order, the values of `COC(=O)C1(C)CN(c2ccc(OC)cc2)C(=O)N1` (racemic) [Compound 4c] are 2%, 5% and −36%.
The matching figures for `COC(=O)C1(C)CN(c2ccc(Cl)c(C(F)(F)F)c2)C(=O)N1` (racemic) [Compound 4d]: 0%, 1% and 24%.
The matching figures for `COC(=O)C1(C)CN(c2ccc(C#N)c(C(F)(F)F)c2)C(=O)N1` (racemic) [Compound 4e]: 0%, −15% and −68%.
As for `CC1(C(=O)O)CN(c2ccccc2)C(=O)N1` (racemic) [Compound 5b], the “% Activition @ 3 μM” value in assay [1] (3 μM, L929 cells) amounted to 0%. The “% Inhibition @ 3 μM” value in assay [1] (setting [3]) is 32%; in assay [2] it was −110%.
`COc1ccc(N2CC(C)(C(=O)O)NC2=O)cc1` (racemic) [Compound 5c]: the “% Activition @ 3 μM” value in assay [1] (3 μM, L929 cells) is recorded as −5%. For the same molecule, the “% Inhibition @ 3 μM” value is given as −14% in assay [1] (setting [3]) and −21% in assay [2].
In the case of `CC1(C(=O)O)CN(c2ccc(Cl)c(C(F)(F)F)c2)C(=O)N1` (racemic) [Compound 5d], the “% Activition @ 3 μM” value in assay [1] (3 μM, L929 cells) came out at 0%. Also, the “% Inhibition @ 3 μM” value is −30% in assay [1] (setting [3]) and 28% in assay [2].
The matching figures for `CC1(C(=O)Nc2ccccc2)CN(c2ccccc2)C(=O)N1` (racemic) [Compound 6b]: 0%, 54% and −68%.
As to `COc1ccc(N2CC(C)(C(=O)Nc3ccc(C#N)c(C(F)(F)F)c3)NC2=O)cc1` (racemic) [Compound 6c], the “% Activition @ 3 μM” value in assay [1] (3 μM, L929 cells) is given as 0%. Besides, the “% Inhibition @ 3 μM” value in assay [1] (setting [3]) was determined as 11%; in assay [2] it was 29%.
The matching figures for `CC1(C(=O)Nc2ccc(C#N)c(C(F)(F)F)c2)CN(c2ccccc2)C(=O)N1` (racemic) [Compound 6d]: 0%, 59% and 1%.
The matching figures for `CC1(C(=O)Nc2ccc([N+](=O)[O-])c(C(F)(F)F)c2)CN(c2ccccc2)C(=O)N1` (racemic) [Compound 6e]: 2%, 96% and −71%.
In the same order, the values of `CC1(C(=O)Nc2cccc(C(F)(F)F)c2)CN(c2ccc(F)cc2)C(=O)N1` (racemic) [Compound 6g] are 0%, −12% and 23%.
Regarding `CC1(C(=O)Nc2cc(C(F)(F)F)cc(C(F)(F)F)c2)CN(c2ccc(F)cc2)C(=O)N1` (racemic) [Compound 6h], the “% Activition @ 3 μM” value in assay [1] (3 μM, L929 cells) worked out at 0%. The “% Inhibition @ 3 μM” value in assay [1] (setting [3]) is 21%; in assay [2], −17%.
In the same order, the values of `CC1(C(=O)Nc2ccc(C(F)(F)F)nc2)CN(c2ccccc2)C(=O)N1` (racemic) [Compound 6j] are 0%, 29% and −75%.
For `CC1(C(=O)O)CN(c2ccc(F)cc2)C(=O)N1` (stereo not drawn) [Compound 5a, 1-(4-Fluoro-phenyl)-4-methyl-2-oxo-imidazolidine-4-carboxylic acid], the “% Activition @ 3 μM” value in assay [1] (3 μM, L929 cells) came to 1%. The inhibition at 3 µM turned out to be 15% in assay [1] (3 μM, L929 cells, antagonist testing with R1881, luciferase, read-out: % Inhibition @ 3 μM) and 33% in assay [2].
In the case of `CC1(C(=O)Nc2ccc(C#N)c(C(F)(F)F)c2)CN(c2ccc(F)cc2)C(=O)N1` (stereo not drawn) [Compound 6a, 1-(4-Fluoro-phenyl)-4-methyl-2-oxo-imidazolidine-4-carboxylic acid (4-cyano-3-trifluoromethyl-phenyl)-amide], the “% Activition @ 3 μM” value in assay [1] (3 μM, L929 cells) amounted to 9%. Further, the inhibition at 3 µM was 37% in assay [1] (L929, read-out: % Inhibition @ 3 μM) and 63% in assay [2].

Source of the values: patent publication US7531565B2, “Imidazolidin-2-one derivatives as selective androgen receptor modulators (SARMS)” (Janssen Pharmaceutica, N.V., priority 2004, dated 2009).
